Test results from patent US20250171438A1 (Agios Pharmaceuticals, Inc., priority 2022, published 2025).

Target: T1, human PAH with the R408W mutation (Homo sapiens, UniProt P00439, R408W)
T1 construct: expressed in transfected cells
T1 sequence (P00439 1-452 R408W): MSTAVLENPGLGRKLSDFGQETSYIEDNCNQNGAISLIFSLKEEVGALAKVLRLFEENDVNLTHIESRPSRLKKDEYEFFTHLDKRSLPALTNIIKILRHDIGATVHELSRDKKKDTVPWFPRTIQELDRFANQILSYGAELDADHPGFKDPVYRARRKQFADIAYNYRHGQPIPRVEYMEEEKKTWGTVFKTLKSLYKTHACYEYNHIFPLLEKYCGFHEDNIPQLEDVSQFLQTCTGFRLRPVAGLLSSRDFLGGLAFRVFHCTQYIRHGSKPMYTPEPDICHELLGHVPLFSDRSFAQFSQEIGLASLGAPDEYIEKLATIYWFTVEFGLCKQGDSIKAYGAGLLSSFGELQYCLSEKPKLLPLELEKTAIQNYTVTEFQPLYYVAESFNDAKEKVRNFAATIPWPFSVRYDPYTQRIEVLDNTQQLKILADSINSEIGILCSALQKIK
Experiment: Cell Based Phenylalanine Flux Assay
Parameters: scale not given here
Settings: A375 cells expressing human R408W PAH; 24 hrs compound incubation; 13C-Tyrosine by LC-MS; average where tested multiple times; read-out: AC50

`O=C(c1oc(-c2ccccn2)nc1C(F)(F)F)N1CCCc2[nH]cnc2[C@H]1c1nc2ccccc2s1` [Example 2121, (S)-(4-(benzo[d]thiazol-2-yl)-7,8-dihydroimidazo[4,5-c]azepin-5(1H,4H,6H)-yl)(2-(pyridin-2-yl)-4-(trifluoromethyl)oxazol-5-yl)methanone] and `O=C(c1nc2ccccc2s1)N1CCc2[nH]cnc2[C@H]1c1nc2ccccc2s1` [Example 1001, (S)-benzo[d]thiazol-2-yl(4-(benzo[d]thiazol-2-yl)-6,7-dihydro-1H-imidazo[4,5-c]pyridin-5(4H)-yl)methanone] fall in the same range of AC50: 500 to 1000 nM for the first, 500 to 1000 nM for the second.

First: Cc1ccc2nc([C@H]3c4nc[nH]c4CCN3C(=O)c3cncs3)sc2c1 [Example 1304, (R)-(4-(6-methylbenzo[d]thiazol-2-yl)-6,7-dihydro-1H-imidazo[4,5-c]pyridin-5(4H)-yl)(thiazol-5-yl)methanone]
Second: Cc1csc(C(=O)N2CCc3[nH]cnc3[C@H]2c2nc3ccccc3s2)n1 [Example 1044]
The AC50 of the first is higher: greater than 5000 nM for the first, 1000 to 5000 nM for the second.

Compared with `O=C(c1ccnn1CC(F)(F)F)N1CCc2[nH]cnc2[C@@H]1c1nc2c(F)cccc2s1` [Example 1738, (R)-(4-(4-fluorobenzo[d]thiazol-2-yl)-6,7-dihydro-1H-imidazo[4,5-c]pyridin-5(4H)-yl)(1-(2,2,2-trifluoroethyl)-1H-pyrazol-5-yl)methanone], `O=C(c1nnc(-c2cnn(CC(F)(F)F)c2)o1)N1CCc2[nH]cnc2[C@H]1c1nc2c(F)cccc2s1` [Example 1844, (S)-(4-(4-fluorobenzo[d]thiazol-2-yl)-6,7-dihydro-1H-imidazo[4,5-c]pyridin-5(4H)-yl)(5-(1-(2,2,2-trifluoroethyl)-1H-pyrazol-4-yl)-1,3,4-oxadiazol-2-yl)methanone] is lower in AC50: 1000 to 5000 nM for the first, 500 to 1000 nM for the second.

Compared with `O=C(c1cnn2ccccc12)N1CCc2[nH]cnc2[C@@H]1c1nc2ccc(F)cc2s1` [Example 1100, (R)-(4-(6-fluorobenzo[d]thiazol-2-yl)-6,7-dihydro-1H-imidazo[4,5-c]pyridin-5(4H)-yl)(pyrazolo[1,5-a]pyridin-3-yl)methanone], `CC(C)(O)c1cccc2c(C(=O)N3CCc4[nH]cnc4[C@H]3c3nc4ccccc4s3)cnn12` [Example 1481] is lower in AC50: greater than 5000 nM for the first, less than 500 nM for the second.

Compared with `O=C(c1cn[nH]c1C(F)F)N1CCc2[nH]cnc2[C@H]1c1nc2c(F)cccc2s1` [Example 1859], `O=C(c1cnco1)N1CCc2[nH]cnc2[C@@H]1c1nc2cccc(F)c2s1` [Example 1248, (R)-(4-(7-fluorobenzo[d]thiazol-2-yl)-6,7-dihydro-1H-imidazo[4,5-c]pyridin-5(4H)-yl)(oxazol-5-yl)methanone] is higher in AC50: less than 500 nM for the first, 1000 to 5000 nM for the second.

Compared with `N#Cc1nc(N2CCOCC2)oc1C(=O)N1CCc2[nH]cnc2[C@@H]1c1nc2ccccc2s1` [Example 1706, (R)-5-(4-(benzo[d]thiazol-2-yl)-4,5,6,7-tetrahydro-1H-imidazo[4,5-c]pyridine-5-carbonyl)-2-morpholinooxazole-4-carbonitrile], `Cc1c(-c2ncc(C(=O)N3CCc4[nH]cnc4[C@H]3c3nc4ccccc4s3)s2)cnn1C` [Example 1359] is lower in AC50: greater than 5000 nM for the first, less than 500 nM for the second.

`Cc1ncoc1C(=O)N1CCc2[nH]cnc2[C@@H]1c1nc2ccccc2[nH]1` [Example 992, (R)-(4-(1H-benzo[d]imidazol-2-yl)-6,7-dihydro-1H-imidazo[4,5-c]pyridin-5(4H)-yl)(4-methyloxazol-5-yl)methanone] was tested, and the AC50 was greater than 5000 nM.

Same assay, conditions: A375 cells expressing human R408W PAH; 24 hrs with compound; 13C-Tyrosine by LC-MS; average where tested multiple times

`O=C(c1c(C(F)F)nn2cc(Br)ccc12)N1CCc2[nH]cnc2C1c1nc2ccccc2s1` (centres unmarked) was tested, and the AC50 was “E, E”.

Same assay, conditions: A375 cells expressing human R408W PAH; 24 hrs with compound; 13C-Tyrosine by LC-MS; average where tested multiple times; read-out: AC50

First: Cn1ncc(C(=O)N2CCc3[nH]cnc3C2c2nc3c(F)cccc3s2)c1C#N (centres unmarked)
Second: CN(C)CCn1ncc(C(=O)N2CCc3[nH]cnc3C2c2nc3ccccc3s2)c1C#N (centres unmarked)
The AC50 of the first is lower: 1000 to 5000 nM for the first, greater than 5000 nM for the second.

`O=C(Cc1cscn1)N1CCc2[nH]cnc2C1c1nc2ccccc2s1` (centres unmarked) and `O=C(C1CC1)N1CCc2[nH]cnc2C1c1nc2ccc(Br)cc2s1` (centres unmarked) cannot be ordered by AC50: greater than 5000 nM for the first, greater than 5000 nM for the second.

`CC1CN(C(=O)c2cnco2)C(c2nc3c(F)cccc3s2)c2nc[nH]c21` (centres unmarked) and `Cc1ccc2c(C(=O)N3CCc4[nH]cnc4C3c3nc4ccc(Cl)cc4[nH]3)cnn2c1` (centres unmarked) cannot be ordered by AC50: greater than 5000 nM for the first, greater than 5000 nM for the second.
